In patent US8835476B2, “Synthesis of novel antimicrobials” (priority 2005, dated 2014):
Converted amounts (≈) assume the structure as drawn. Like-named read-outs stand apart in the source and are kept apart here.

Legend:
Format in all cases: cell-based
A. anitratus ATCC 19606 = experiment: Broth microdilution MIC, ATCC strains; conditions: Acinetobacter calcoaceticus
From the text: (§1) All clinical isolates tested were from The North American Urinary Tract Infection Collaborative Alliance (NAUTICA) which is a UTI surveillance study involving 40 medical centres (30 from the US and 10 from Canada). Each centre submitted up to 50 consecutive outpatient midstream urine isolates. All isolates were deemed significant urinary tract pathogens by individual laboratory criteria and identified to the species level by each laboratory's existing protocol. Isolates were transported to the coordinating laboratory (Health Sciences Centre, Winnipeg, Canada) on charcoal swabs. Only one isolate per patient was accepted. Upon receipt, isolates were cultured by the coordinating laboratory, stocked in skim milk, and stored at −80° C. awaiting reference antibiotic susceptibility testing. Elementary demographic information was also compiled for each isolate. Isolates were selected randomly from the above pool to represent 18 different species of Enterobacteriaceae and non-Enterobacteriaceae. An average of 5 strains of each species were tested for a total of 93 organisms. In addition, 23 reference (ATCC) [both gram negative and gram positive] strains were tested.
(§2) Susceptibilities to the compounds were determined using the National Committee for Clinical Laboratory Standards (NCCLS) M7-A6 broth microdilution method. […] DMSO controls were incorporated into the panel to mimic the quantity of DMSO used in dissolving some of the compounds at the higher concentrations. Each final panel well volume was 100 μl with a bacterial inoculum of 5×10^5 colony forming units (CFU)/ml. Panels were read following 16 to 20 hours of incubation at 35° C. in ambient air. The minimum inhibitory concentration (MIC) was defined as the lowest concentration of antimicrobial inhibiting visible growth. Quality control (QC) was performed using four ATCC QC organisms that were run with every batch set up to insure reproducibility.

B. cepacia ATCC 25416 = experiment: Broth microdilution MIC, ATCC strains; conditions: Burkholderia cepacia
From the text: as §1, §2

E. aerogenes ATCC 13048 = experiment: Broth microdilution MIC, ATCC strains; conditions: Klebsiella aerogenes
From the text: as §1, §2

E. cloacae ATCC 23355 = experiment: Broth microdilution MIC, ATCC strains; conditions: Enterobacter cloacae
From the text: as §1, §2

E. coli ATCC 25922 = experiment: Broth microdilution MIC, ATCC strains; conditions: Escherichia coli
From the text: as §1, §2

K. oxytoca ATCC 49131 = experiment: Broth microdilution MIC, ATCC strains; conditions: Klebsiella oxytoca
From the text: as §1, §2

K. pneumoniae ATCC 13883 = experiment: Broth microdilution MIC, ATCC strains; conditions: Klebsiella pneumoniae
From the text: as §1, §2

P. mirabilis ATCC 29245 = experiment: Broth microdilution MIC, ATCC strains; conditions: Proteus mirabilis
From the text: as §1, §2

[1] = test system: Ps. aeruginosa ATCC 27853; experiment: Broth microdilution MIC, ATCC strains; conditions: Pseudomonas aeruginosa
From the text: as §1, §2

S. aureus ATCC 29213 = experiment: Broth microdilution MIC, ATCC strains; conditions: for MIC: Staphylococcus aureus, ATCC29213, S. aureus ATCC 29213, read-out: MIC (growth inhibition, microdilution method)
From the text: as §1, §2

[2] = test system: S. liquefaciens ATCC 27592; experiment: Broth microdilution MIC, ATCC strains; conditions: read-out: MIC (growth inhibition, microdilution method)
From the text: as §1, §2

[3] = test system: S. saprophyticus ATCC 15305; experiment: Broth microdilution MIC, ATCC strains; conditions: Staphylococcus saprophyticus, ATCC15305; S. saprophyticus ATCC 15305; read-out: MIC (growth inhibition, microdilution method)
From the text: as §1, §2

P. rettgeri CAP = experiment: Broth microdilution MIC, reference strains; conditions: Providencia rettgeri, read-out: MIC (growth inhibition, microdilution method)
From the text: as §1, §2

[4] = test system: A. baumanii clinical isolates; experiment: Broth microdilution MIC, clinical isolate strains (NAUTICA); conditions: clinical isolates, one table line per isolate; unit assumed
From the text: as §1, §2

[5] = test system: B. cepacia clinical isolates; experiment: as above; conditions: clinical isolates, one table line per isolate; unit assumed
From the text: as §1, §2

[6] = test system: C. amalonaticus clinical isolates; experiment: as above; conditions: clinical isolates, one table line per isolate; unit assumed
From the text: as §1, §2

[7] = test system: C. freundii clinical isolates; experiment: as above; conditions: clinical isolates, one table line per isolate; in µg/mL (unit assumed)
From the text: as §1, §2

[8] = test system: C. koseril clinical isolates; experiment: as above; conditions: clinical isolates, one table line per isolate; unit assumed
From the text: as §1, §2

[9] = test system: E. aerogenes clinical isolates; experiment: as above; conditions: clinical isolates, one table line per isolate; unit assumed
From the text: as §1, §2

[10] = test system: E. cloacae clinical isolates; experiment: as above; conditions: clinical isolates, one table line per isolate; unit assumed
From the text: as §1, §2

[11] = test system: E. coli clinical isolates; experiment: as above; conditions: clinical isolates, one table line per isolate; unit assumed
From the text: as §1, §2

[12] = test system: K. oxytoca clinical isolates; experiment: as above; conditions: clinical isolates, one table line per isolate; unit assumed
From the text: as §1, §2

[13] = test system: K. pneumoniae clinical isolates; experiment: as above; conditions: clinical isolates, one table line per isolate; unit assumed
From the text: as §1, §2

[14] = test system: M. morganii clinical isolates; experiment: as above; conditions: clinical isolates, one table line per isolate; unit assumed
From the text: as §1, §2

[15] = test system: P. mirabilis clinical isolates; experiment: as above; conditions: clinical isolates, one table line per isolate; unit assumed
From the text: as §1, §2

[16] = test system: P. retgerri clinical isolates; experiment: as above; conditions: clinical isolates, one table line per isolate; unit assumed
From the text: as §1, §2

[17] = test system: P. stuartii clinical isolates; experiment: as above; conditions: clinical isolates, one table line per isolate; unit assumed
From the text: as §1, §2

[18] = test system: P. vulgaris clinical isolates; experiment: as above; conditions: clinical isolates, one table line per isolate; unit assumed
From the text: as §1, §2

[19] = test system: S. liquifaciens clinical isolates; experiment: as above; conditions: clinical isolates, one table line per isolate; unit assumed
From the text: as §1, §2

[20] = test system: S. maltophilia clinical isolates; experiment: as above; conditions: clinical isolates, one table line per isolate; unit assumed
From the text: as §1, §2

[21] = test system: S. marcescens clinical isolates; experiment: as above; conditions: clinical isolates, one table line per isolate; unit assumed
From the text: as §1, §2

Compound	MIC (S. aureus ATCC 29213) [mg/L]	MIC [3] [mg/L]	MIC, A. BAUMANII [4] [mg/L]	MIC, B. CEPACIA [5] [mg/L]	MIC, C. AMALONATICUS [6] [mg/L]	MIC, C. FREUNDII [7]	MIC, C. KOSERI [8] [mg/L]	MIC, E. AEROGENES [9] [mg/L]	MIC, E. CLOACAE [10] [mg/L]	MIC, E. COLI [11] [mg/L]	MIC, K. OXYTOCA [12] [mg/L]	MIC, K. PNEUMONIAE [13] [mg/L]	MIC, M. MORGANII [14] [mg/L]	MIC, P. MIRABILIS [15] [mg/L]	MIC, P. RETTGERI [16] [mg/L]	MIC, P. STUARTII [17] [mg/L]	MIC, P. VULGARIS [18] [mg/L]	MIC, S. LIQUEFACIENS [19] [mg/L]	MIC, S. MALTOPHILIA [20] [mg/L]	MIC, S. MARCESCENS [21] [mg/L]	further results
Cn1nnc(-c2cc(C(=O)O)sc2C(=O)O)n1 [DNM-112, 3-(2-Methyl-2H-tetrazol-5-yl)-thiophene-2,5-dicarboxylic acid]	16 (≈ 62.9 µM)	64 (≈ 252 µM)	> 256	> 256	> 256	>256	> 256	> 256	> 256	> 256	> 256	> 256	> 256	> 256	> 256	> 256	> 256	> 256	> 256	> 256	MIC (A. anitratus ATCC 19606; ATCC19606, read-out: MIC (growth inhibition, microdilution method)): > 256 mg/L; MIC (B. cepacia ATCC 25416; ATCC25416, read-out: MIC (growth inhibition, microdilution method)): > 256 mg/L; MIC (E. aerogenes ATCC 13048; ATCC13048, read-out: MIC (growth inhibition, microdilution method)): > 256 mg/L; MIC (E. cloacae ATCC 23355; ATCC23355, read-out: MIC (growth inhibition, microdilution method)): > 256 mg/L; MIC (E. coli ATCC 25922; ATCC25922, read-out: MIC (growth inhibition, microdilution method)): > 256 mg/L; MIC (K. oxytoca ATCC 49131; ATCC49131, read-out: MIC (growth inhibition, microdilution method)): > 256 mg/L; MIC (K. pneumoniae ATCC 13883; ATCC13883, read-out: MIC (growth inhibition, microdilution method)): > 256 mg/L; MIC (P. mirabilis ATCC 29245; ATCC29245, read-out: MIC (growth inhibition, microdilution method)): > 256 mg/L; MIC ([1]; ATCC27853, read-out: MIC (growth inhibition, microdilution method), Ps. aeruginosa ATCC 27853): > 256 mg/L; MIC [2]: > 256 mg/L; MIC (P. rettgeri CAP): > 256 mg/L
O=C(O)c1cc(-c2nnn[nH]2)c(-c2ccc(F)cc2)s1 [DNM-121, 5-(4-Fluoro-phenyl)-4-(1H-tetrazol-5-yl)-thiophene-2-carboxylic acid]	64 (≈ 220 µM)	64 (≈ 220 µM)	64 (≈ 220 µM)	64 (≈ 220 µM)	64 (≈ 220 µM)	64	64 (≈ 220 µM)	64 (≈ 220 µM)	64 (≈ 220 µM)	64 (≈ 220 µM)	64 (≈ 220 µM)	64 (≈ 220 µM)	64 (≈ 220 µM)	64 (≈ 220 µM)	64 (≈ 220 µM)	64 (≈ 220 µM)	64 (≈ 220 µM)	64 (≈ 220 µM)	64 (≈ 220 µM)	64 (≈ 220 µM)	MIC (A. anitratus ATCC 19606; ATCC19606, A. anitratus ATCC 19606, read-out: MIC (growth inhibition, microdilution method)): 64 mg/L (≈ 220 µM); MIC (B. cepacia ATCC 25416; ATCC25416, B. cepacia ATCC 25416, read-out: MIC (growth inhibition, microdilution method)): 64 mg/L (≈ 220 µM); MIC (E. aerogenes ATCC 13048; ATCC13048, E. aerogenes ATCC 13048, read-out: MIC (growth inhibition, microdilution method)): 64 mg/L (≈ 220 µM); MIC (E. cloacae ATCC 23355; ATCC23355, E. cloacae ATCC 23355, read-out: MIC (growth inhibition, microdilution method)): 64 mg/L (≈ 220 µM); MIC (E. coli ATCC 25922; ATCC25922, E. coli ATCC 25922, read-out: MIC (growth inhibition, microdilution method)): 64 mg/L (≈ 220 µM); MIC (K. oxytoca ATCC 49131; ATCC49131, K. oxytoca ATCC 49131, read-out: MIC (growth inhibition, microdilution method)): 64 mg/L (≈ 220 µM); MIC (K. pneumoniae ATCC 13883; ATCC13883, K. pneumoniae ATCC 13883, read-out: MIC (growth inhibition, microdilution method)): 64 mg/L (≈ 220 µM); MIC (P. mirabilis ATCC 29245; ATCC29245, P. mirabilis ATCC 29245, read-out: MIC (growth inhibition, microdilution method)): 64 mg/L (≈ 220 µM); MIC ([1]; ATCC27853, Ps. aeruginosa ATCC 27853, read-out: MIC (growth inhibition, microdilution method)): 64 mg/L (≈ 220 µM); MIC (growth inhibition, microdilution method) (S. aureus ATCC 29213; S. aureus ATCC 29213): 32 mg/L (≈ 110 µM); MIC ([2]; S. liquefaciens ATCC 27592): 64 mg/L (≈ 220 µM); MIC (P. rettgeri CAP; P. rettgeri (CAP in Table 1)): 64 mg/L (≈ 220 µM)
